Test systems include SF-268; IGROV-1; SF-539; MDA-N; EKVX; PC-3; 786-0; NCI-H226; MDA-MB-435; RPMI-8226; MOLT-4; HL-60; DU-145; ACHN; MDA-MB-231; A498; RXF 393; UO-31; HCT-15; Hs-578T.
What all share (experiment): NCI-60 cell line screen, 48 h

Data on eleven molecules can be found in ChEMBL document CHEMBL1201862, “PubChem BioAssay data set” (2004).

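Each compound was tested at five concentrations against cells in 96-well plates for 48 hours. Abbreviation: GI50, concentration required for 50% inhibition of growth.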 The source made the active and inactive calls. Cut-off read from the data, not from the text of the source: active = GI50 up to about 1.1 µM and inactive = higher. Where only a bound is given, the exact number is not on record here.

As for `S=C(NCCc1ccccn1)N/N=C/c1ccccn1`, the GI50 is 0.301 µM (active) in the experiment with SF-268; < 0.01 µM (active) in the experiment with IGROV-1; 0.127 µM (active) in the experiment with SF-539; 1.91 µM (inactive) in the experiment on MDA-N; 0.0243 µM (active) in the experiment with EKVX; 0.0115 µM (active) in the experiment on PC-3. The GI50 in the experiment on 786-0 is 0.0653 µM (active); with NCI-H226, 0.0598 µM (active); in the experiment with MDA-MB-435, 4.09 µM (inactive); in the experiment on RPMI-8226, < 0.01 µM (active); in the experiment with MOLT-4 it was < 0.0108 µM (active); in the experiment on HL-60 it was < 0.01 µM (active). For the same molecule, the GI50 in the experiment with DU-145 was 1.48 µM (inactive); in the experiment with ACHN, < 0.01 µM (active); with MDA-MB-231, < 0.01 µM (active).

As for `CC1(C)N(OC2CCCCO2)C(c2ccccc2)C(c2ccccc2)=[N+]1[O-]` (stereo unspecified), the GI50 is > 100 µM (inactive) in the experiment on IGROV-1; > 100 µM (inactive) in the experiment with A498; > 100 µM (inactive) in the experiment on SF-539; > 100 µM (inactive) in the experiment with MDA-N; 47.5 µM (inactive) with RXF 393; > 100 µM (inactive) with EKVX. Besides, the GI50 is 52.2 µM (inactive) in the experiment with PC-3; > 100 µM (inactive) in the experiment with 786-0; > 100 µM (inactive) with NCI-H226; 30 µM (inactive) with MOLT-4; 59.8 µM (inactive) in the experiment with UO-31; 8.93 µM (inactive) in the experiment with HL-60. The GI50 in the experiment with HCT-15 is more than 100 µM; in the experiment on ACHN, > 100 µM (inactive); in the experiment with Hs-578T, 94 µM (inactive); with MDA-MB-231, > 100 µM (inactive).

In the case of `OCCCCCNc1cc(O)nc(O)n1`, the GI50 in the experiment on SF-268, with IGROV-1, in the experiment on A498, in the experiment on SF-539, in the experiment with MDA-N and with RXF 393 was > 100 µM (inactive) each time. Besides, the GI50 in the experiment on EKVX, in the experiment on PC-3, in the experiment on 786-0, in the experiment on NCI-H226, in the experiment on MDA-MB-435 and in the experiment on RPMI-8226 was > 100 µM (inactive) in each case. Besides, the GI50 in the experiment with MOLT-4 was > 100 µM (inactive); in the experiment on UO-31, > 100 µM (inactive); in the experiment with HL-60, > 100 µM (inactive); in the experiment on HCT-15 it was more than 100 µM; in the experiment with ACHN it was > 100 µM (inactive); in the experiment on Hs-578T it was > 100 µM (inactive). Further, the GI50 in the experiment on MDA-MB-231 is > 100 µM (inactive).

On to `CC[C@@]1(CCC(=O)NCCc2c[nH]c3ccccc23)CCC(=O)N2CCc3c([nH]c4ccccc34)[C@H]21`, for which the GI50 was 5.64 µM (inactive) in the experiment with SF-268; 4.04 µM (inactive) in the experiment with IGROV-1; 27.1 µM (inactive) with A498; 12 µM (inactive) in the experiment on SF-539; 12.6 µM (inactive) with MDA-N; 6.12 µM (inactive) with RXF 393. Also, the GI50 in the experiment on EKVX is 12.2 µM (inactive); in the experiment on PC-3, 5.56 µM (inactive); in the experiment on 786-0, 11.7 µM (inactive); in the experiment with NCI-H226, 20 µM (inactive); in the experiment on MDA-MB-435, 7.36 µM (inactive); in the experiment on RPMI-8226, 3.08 µM (inactive). For the same molecule, the GI50 in the experiment on MOLT-4 was 3.71 µM (inactive); in the experiment on UO-31 it was 22.9 µM (inactive); in the experiment on HCT-15 it was 20 µM; in the experiment with DU-145, 29 µM (inactive); in the experiment with ACHN it was 15.3 µM (inactive); with MDA-MB-231, 40.7 µM (inactive).

In the case of `COc1cc2nc(-c3ccccc3F)nc(O)c2cc1OC`, the GI50 with SF-268, in the experiment with IGROV-1, in the experiment on A498, with MDA-N, in the experiment with RXF 393 and with EKVX was > 100 µM (inactive) throughout. The GI50 in the experiment on PC-3 is > 100 µM (inactive); in the experiment on 786-0 it was > 100 µM (inactive); in the experiment on NCI-H226 it was > 100 µM (inactive); with RPMI-8226 it was > 100 µM (inactive); with MOLT-4, 70.3 µM (inactive); in the experiment on UO-31 it was 63.2 µM (inactive). Also, the GI50 in the experiment with HL-60 is > 100 µM (inactive); with HCT-15 it was 49.2 µM; with DU-145, > 100 µM (inactive); in the experiment with ACHN it was > 100 µM (inactive); with Hs-578T it was 42.9 µM (inactive); in the experiment with MDA-MB-231 it was > 100 µM (inactive).

Take `CCc1cc2c(c3c1CCC3=O)CC1(Cc3ccc(C)cc3C1)C2` (stereo unspecified): the GI50 with IGROV-1 was 42.9 µM (inactive); in the experiment on A498 it was 27.4 µM (inactive); with SF-539, > 100 µM (inactive); in the experiment with MDA-N, 38.1 µM (inactive); with RXF 393, 34.8 µM (inactive); in the experiment with EKVX it was 16.8 µM (inactive). Besides, the GI50 in the experiment with PC-3 was 23 µM (inactive); with 786-0 it was 96.8 µM (inactive); in the experiment with NCI-H226 it was 13.5 µM (inactive); with MDA-MB-435, 33.7 µM (inactive); in the experiment with RPMI-8226 it was 22.2 µM (inactive); with MOLT-4, 11.5 µM (inactive). Moreover, the GI50 is 0.159 µM (active) in the experiment with UO-31; 21.7 µM (inactive) in the experiment with HL-60; 46.3 µM with HCT-15; 27.3 µM (inactive) with ACHN; 19.7 µM (inactive) in the experiment with Hs-578T; 36.6 µM (inactive) with MDA-MB-231.

For the molecule `COc1ccc(C2C3CCc4ccccc4C3=NN2S(=O)(=O)c2ccc(/C=C/C(=O)O)cc2)cc1` (stereo unspecified), the GI50 was 5.35 µM (inactive) in the experiment on SF-268; 0.755 µM (active) with IGROV-1; 2.3 µM (inactive) in the experiment on SF-539; 1.42 µM (inactive) with MDA-N; 3.15 µM (inactive) with RXF 393; 8.99 µM (inactive) in the experiment with EKVX. Besides, the GI50 is 3.98 µM (inactive) in the experiment on PC-3; 1.82 µM (inactive) in the experiment with 786-0; 5.98 µM (inactive) in the experiment with NCI-H226; 1.07 µM (active) in the experiment with MDA-MB-435; 3.07 µM (inactive) with RPMI-8226; 3.61 µM (inactive) in the experiment with MOLT-4. For the same molecule, the GI50 was 5.74 µM (inactive) in the experiment with UO-31; 3.07 µM (inactive) in the experiment with HL-60; 0.188 µM with HCT-15; 22.1 µM (inactive) in the experiment on DU-145; 3.21 µM (inactive) in the experiment with ACHN; 4.84 µM (inactive) in the experiment on MDA-MB-231.

In the case of `COc1ccc(CNc2cc(=O)n(C)c(=O)[nH]2)cc1`, the GI50 in the experiment on SF-268 is > 100 µM (inactive); in the experiment with IGROV-1, > 100 µM (inactive); in the experiment with A498, > 100 µM (inactive); in the experiment with SF-539, > 100 µM (inactive); with MDA-N it was > 100 µM (inactive); in the experiment on RXF 393, 35.6 µM (inactive). Besides, the GI50 in the experiment on EKVX, in the experiment with PC-3, in the experiment on 786-0, in the experiment with NCI-H226, in the experiment on MDA-MB-435 and in the experiment on RPMI-8226 was > 100 µM (inactive) in each case. In addition, the GI50 with MOLT-4 was > 100 µM (inactive); in the experiment on UO-31, > 100 µM (inactive); in the experiment on HCT-15, more than 100 µM; in the experiment on ACHN, > 100 µM (inactive); in the experiment on Hs-578T, > 100 µM (inactive); with MDA-MB-231, > 100 µM (inactive).

In the case of `CO[C@]12C[C@H](CNC(=O)c3cc(Br)c(Br)[nH]3)O[C@H]1NC(=O)N2`, the GI50 in the experiment on SF-268, with IGROV-1, with A498, in the experiment on SF-539, with EKVX and with PC-3 was > 100 µM (inactive) in each case. Further, the GI50 with 786-0, in the experiment on NCI-H226, with MDA-MB-435, with RPMI-8226, with MOLT-4 and in the experiment on UO-31 was > 100 µM (inactive) in each case. The GI50 in the experiment with HL-60 is > 100 µM (inactive); in the experiment with HCT-15, more than 100 µM; with DU-145 it was > 100 µM (inactive); with ACHN, > 100 µM (inactive); with Hs-578T it was > 100 µM (inactive); in the experiment with MDA-MB-231 it was > 100 µM (inactive).

For the molecule `O=S1(=O)OCCOS(=O)(=O)C1S(=O)(=O)c1cccc2ccccc12`, the GI50 was > 100 µM (inactive) with IGROV-1; > 100 µM (inactive) with MDA-N; > 100 µM (inactive) in the experiment with EKVX; 42.3 µM (inactive) in the experiment with PC-3; 99.5 µM (inactive) in the experiment on 786-0; > 100 µM (inactive) in the experiment on MDA-MB-435. The GI50 was > 100 µM (inactive) in the experiment with RPMI-8226; > 100 µM (inactive) in the experiment on MOLT-4; > 100 µM (inactive) in the experiment with UO-31; 68.5 µM (inactive) with HL-60; more than 100 µM with HCT-15; > 100 µM (inactive) with DU-145. Also, the GI50 in the experiment with ACHN and in the experiment with MDA-MB-231 was > 100 µM (inactive) each time.

On to `COc1ccc(NC(/C(C(=O)c2ccccc2)=C(\O)C(=O)/C=C(\O)c2ccccc2)c2ccc(OC)cc2)cc1` (stereo unspecified), for which the GI50 with SF-268 was 43.1 µM (inactive); with IGROV-1, 35 µM (inactive); with A498, 35.7 µM (inactive); with SF-539 it was 38.8 µM (inactive); with RXF 393, 37.1 µM (inactive); in the experiment on EKVX it was 18.7 µM (inactive). The GI50 with PC-3 was 39.3 µM (inactive); with 786-0 it was 31 µM (inactive); in the experiment on NCI-H226, > 100 µM (inactive); with MDA-MB-435, 20.6 µM (inactive); in the experiment on RPMI-8226, 24.2 µM (inactive); in the experiment on MOLT-4 it was 42.8 µM (inactive). Also, the GI50 in the experiment on UO-31 was 53.6 µM (inactive); with HL-60, 34.1 µM (inactive); in the experiment with HCT-15, 42.1 µM; with DU-145, 41.6 µM (inactive); with ACHN it was 64.9 µM (inactive); in the experiment with Hs-578T it was 36 µM (inactive). In addition, the GI50 in the experiment with MDA-MB-231 was > 100 µM (inactive).
